Reference: paper PMC11170107, “Development of a new hazard scoring system in primary neuronal cell cultures for drug-induced acute neuronal toxicity identification in early drug discovery” (Frontiers in Pharmacology, 2024)

Tests used:
[1] = system: Male rats (Sprague-Dawley); experiment: EEG recordings and behavioral seizures in freely moving rats; format: in vivo; settings: freely moving rat, iv
From the text: Electroencephalogram (EEG) rodent studies and assessment of seizures: Male rats (n = 8) (Sprague-Dawley), 400-800 g, were surgically implanted with Stellar Implantable Transmitter (E−430001-IMP-77, Type PBT-M-C Pressure, Biopotential, Temp; TSE systems USA) and microchipped with RFID (Bio13. Therm.03V1 PLS, Biomark Inc, USA) transponder for measurements of activity and body temperature. EEG was used to confirm that convulsive activity is linked to seizurogenic activity measured on the EEG.

[2] = system: rat primary cortical neurons
Experimental: (§1) At DIV28, spontaneous neuronal activity obtained for 30 min in culture solution was defined as the baseline.
(§2) Data analysis was captured using AxIs suite software (Axion Biosystems Inc., version 3.6.2) and further analyzed using GraphPad Prism (version 9.00; GraphPad Software Inc., San Diego, CA). […] An active well should have more than 40% active electrodes. All wells below this threshold were discarded upon these quality criteria. For the downstream statistical analysis, the data on each MEA parameter was first expressed as the ratio of exposed wells (percentage change between baseline and the treatment) and then normalized to the average of the control within the same plate. i.e., Baseline corrected ratios of n= 7 or eight wells were averaged per condition. Each well of the MEA served as its own control, and the changes in the electrical activity elicited by the treatments were expressed as a percentage of that control activity and normalized to the wells treated with the vehicle control dimethyl sulfoxide (DMSO). […] Differences were determined using the non-parametric Wilcoxon Mann Whitney test; p-values below 0.05 were considered significant. Data are expressed as means ± S.E.M.
(§3) Thereafter, based on the effects of vehicles and positive controls, we determined the cut-off points between the different effect zones according to the key parameters selected as described in the previous subsection. The zones were defined as follows. The “no effect” zone reflects parameter changes that are most likely within vehicle variability. The “mild” and “strong” zones are differentiated bidirectionally showing mild and strong effects.
(§4) The respective hazard class was determined by a cumulative scoring of individual parameters using a scoring matrix, which was based on the following three fundamental components: (1) selection of the six key relevant parameters, (2) defining the cutoffs for the level of effect, and (3) defining weighted points per parameter for the level of hazard potential. The scoring matrix concluded with the addition of a weighted point algorithm to discriminate distinct degrees of neuronal hazard. […] The weighted points were defined on the importance of a parameter (and the direction of effect), as well as the identification of an expected hazard for different pharmacological modes of action. The overall hazard score is derived from the sum of all weighted parameters, which could be converted into a specific hazard label. The weighted points and total score range associated with the various hazard labels were optimized using an iterative process.

[3] = established from VigiBase, SIDER, Elsevier drug information and FDA prescribing information
[4] = Supplementary Table S1; cited from earlier work
[5] = WHO adverse drug reactions VigiBase; ref Kumlien and Lundberg, 2010; cited from earlier work
[6] = seizure ADR frequency in SIDER; ref Campillos et al., 2008; Kuhn et al., 2010; cited from earlier work
[7] = system: rat primary cortical neurons; experiment: MEA hazard scoring in rat primary cortical neuronal cultures
Experimental: as §1, §2, §3, §4

[8] = ref National library of medicine, Daylimed; cited from earlier work

With `Nc1ccncc1` [4-Aminopyridine] the EEG spikes ([1]; 1 mg/kg) was “significantly increased”, the convulsions and seizures ([1]; 3 mg/kg) was “induced convulsions and seizures” and the “hazard score group in Figure 3” value [2] was “Neuro Active to high hazard”. For the same molecule, the “Classification* (degree of seizure risk)” value [3] was “Risk”, the “Free Cmax highest” value [4] was 240 nM and the “Percentage seizures of total number of ADRs” value [5] was 2.353%. The “SIDER ADR on-/off-label” value [6] was “no frequency information” and the “firing rate (weighted mean firing rate) in MEA recordings” value ([7]; rodent cortical neurons in vitro) was “largely increased”.
In the case of `O=C1CN=C(c2ccccc2Cl)c2cc([N+](=O)[O-])ccc2N1` [Clonazepam], the “hazard score group in Figure 3” value [2] is listed as “Neuro Active to hazard”, the “Classification* (degree of seizure risk)” value [3] is listed as “Risk” and the “Free Cmax highest” value [4] is listed as 12 nM. For the same molecule, the “Percentage seizures of total number of ADRs” value [5] was 2.831%, the “SIDER ADR on-/off-label” value [6] was “not found on label” and the “FDA prescription information at therapeutic dose (Convulsion/ Seizure/Lower the seizure threshold/withdrawal)” value [8] was “on label”. The “hazard classification in the hazard scoring system” value ([7]; rat primary neurons on MEA) was “hazards”.
